Experimental data as given in patent US9636418B2 (priority 2013, dated 2017).
“Also recorded” adds a separate entry of the source. Where two headings read alike, the source gives them in different places.

Experiments:
[1] = tested on: TTX-sensitive Nav channels in mouse DRG neuron; assay type: cell-based
hNav1.7 [2] = biological target: T1, hNav1.7 (Homo sapiens, UniProt Q15858); test: cell-based; details: IonWorks Quattro; read-out: IC50 Nav1.7
hNav1.5 [3] = biological target: T2, hNav1.5 (Homo sapiens, UniProt Q14524); test: cell-based; details: IonWorks Quattro; read-out: IC50 Nav1.5
T2 sequence (Q14524 whole entry): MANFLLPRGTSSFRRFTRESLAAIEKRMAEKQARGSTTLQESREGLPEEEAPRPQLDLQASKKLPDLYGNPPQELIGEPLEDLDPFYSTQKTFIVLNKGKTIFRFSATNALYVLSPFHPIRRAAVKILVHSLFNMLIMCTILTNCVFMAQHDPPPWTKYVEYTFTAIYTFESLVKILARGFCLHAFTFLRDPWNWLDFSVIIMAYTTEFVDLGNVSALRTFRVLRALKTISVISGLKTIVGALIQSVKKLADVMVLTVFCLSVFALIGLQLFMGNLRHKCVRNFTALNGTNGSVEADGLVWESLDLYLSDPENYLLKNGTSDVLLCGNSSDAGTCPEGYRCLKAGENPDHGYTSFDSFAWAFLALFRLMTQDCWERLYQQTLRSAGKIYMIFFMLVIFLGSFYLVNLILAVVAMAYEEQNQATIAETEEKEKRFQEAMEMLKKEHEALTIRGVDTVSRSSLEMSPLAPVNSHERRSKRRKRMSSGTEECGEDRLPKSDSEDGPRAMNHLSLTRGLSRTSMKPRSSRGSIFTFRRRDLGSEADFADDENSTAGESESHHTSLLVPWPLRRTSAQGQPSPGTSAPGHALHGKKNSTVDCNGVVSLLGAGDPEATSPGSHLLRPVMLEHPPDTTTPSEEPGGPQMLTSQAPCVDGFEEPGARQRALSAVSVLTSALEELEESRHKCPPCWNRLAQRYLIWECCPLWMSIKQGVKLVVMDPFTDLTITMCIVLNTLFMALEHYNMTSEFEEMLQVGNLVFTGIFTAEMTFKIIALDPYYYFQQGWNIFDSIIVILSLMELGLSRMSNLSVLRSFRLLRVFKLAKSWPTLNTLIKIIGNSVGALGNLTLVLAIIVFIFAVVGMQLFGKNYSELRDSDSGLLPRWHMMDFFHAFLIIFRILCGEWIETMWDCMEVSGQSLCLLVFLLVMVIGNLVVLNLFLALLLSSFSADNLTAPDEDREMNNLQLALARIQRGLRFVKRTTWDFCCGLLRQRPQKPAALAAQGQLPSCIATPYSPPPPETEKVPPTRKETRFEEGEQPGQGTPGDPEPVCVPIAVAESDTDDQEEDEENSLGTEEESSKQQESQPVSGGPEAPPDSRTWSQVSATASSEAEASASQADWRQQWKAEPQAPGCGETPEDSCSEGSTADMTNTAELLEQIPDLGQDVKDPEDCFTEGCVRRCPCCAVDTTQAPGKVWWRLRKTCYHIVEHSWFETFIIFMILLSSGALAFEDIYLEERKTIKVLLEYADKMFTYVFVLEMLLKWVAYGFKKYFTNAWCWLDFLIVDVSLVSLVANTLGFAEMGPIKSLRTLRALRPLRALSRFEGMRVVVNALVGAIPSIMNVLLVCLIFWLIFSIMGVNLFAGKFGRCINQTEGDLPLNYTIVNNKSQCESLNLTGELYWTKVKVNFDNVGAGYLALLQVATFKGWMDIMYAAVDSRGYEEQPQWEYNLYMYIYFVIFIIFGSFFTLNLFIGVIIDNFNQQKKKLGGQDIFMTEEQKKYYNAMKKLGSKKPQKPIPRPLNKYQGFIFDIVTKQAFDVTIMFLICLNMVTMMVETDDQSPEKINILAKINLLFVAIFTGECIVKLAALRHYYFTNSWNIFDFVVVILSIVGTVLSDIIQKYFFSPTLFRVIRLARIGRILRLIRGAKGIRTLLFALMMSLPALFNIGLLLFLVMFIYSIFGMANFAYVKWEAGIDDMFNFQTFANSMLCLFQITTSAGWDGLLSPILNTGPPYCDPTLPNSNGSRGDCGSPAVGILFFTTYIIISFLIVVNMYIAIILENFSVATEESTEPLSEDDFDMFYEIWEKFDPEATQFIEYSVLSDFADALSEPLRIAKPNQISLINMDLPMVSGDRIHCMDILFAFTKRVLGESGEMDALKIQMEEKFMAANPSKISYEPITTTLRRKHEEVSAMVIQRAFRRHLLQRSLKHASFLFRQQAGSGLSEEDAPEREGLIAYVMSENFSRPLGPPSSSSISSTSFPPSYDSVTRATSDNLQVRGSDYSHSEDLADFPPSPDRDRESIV

hNav1.4 [4] = biological target: T3, hNav1.4 (Homo sapiens, UniProt P35499); test: cell-based; details: for IC50: IonWorks Quattro, read-out: IC50 Nav1.4; for Nav1.4/Nav1.7: ratio of IonWorks Quattro IC50 values
hNav1.3 = hNav1.3 (Homo sapiens, UniProt Q9NY46); test: cell-based; details: IonWorks Quattro; read-out: IC50 Nav1.3
hNav1.3, sequence (Q9NY46 whole entry): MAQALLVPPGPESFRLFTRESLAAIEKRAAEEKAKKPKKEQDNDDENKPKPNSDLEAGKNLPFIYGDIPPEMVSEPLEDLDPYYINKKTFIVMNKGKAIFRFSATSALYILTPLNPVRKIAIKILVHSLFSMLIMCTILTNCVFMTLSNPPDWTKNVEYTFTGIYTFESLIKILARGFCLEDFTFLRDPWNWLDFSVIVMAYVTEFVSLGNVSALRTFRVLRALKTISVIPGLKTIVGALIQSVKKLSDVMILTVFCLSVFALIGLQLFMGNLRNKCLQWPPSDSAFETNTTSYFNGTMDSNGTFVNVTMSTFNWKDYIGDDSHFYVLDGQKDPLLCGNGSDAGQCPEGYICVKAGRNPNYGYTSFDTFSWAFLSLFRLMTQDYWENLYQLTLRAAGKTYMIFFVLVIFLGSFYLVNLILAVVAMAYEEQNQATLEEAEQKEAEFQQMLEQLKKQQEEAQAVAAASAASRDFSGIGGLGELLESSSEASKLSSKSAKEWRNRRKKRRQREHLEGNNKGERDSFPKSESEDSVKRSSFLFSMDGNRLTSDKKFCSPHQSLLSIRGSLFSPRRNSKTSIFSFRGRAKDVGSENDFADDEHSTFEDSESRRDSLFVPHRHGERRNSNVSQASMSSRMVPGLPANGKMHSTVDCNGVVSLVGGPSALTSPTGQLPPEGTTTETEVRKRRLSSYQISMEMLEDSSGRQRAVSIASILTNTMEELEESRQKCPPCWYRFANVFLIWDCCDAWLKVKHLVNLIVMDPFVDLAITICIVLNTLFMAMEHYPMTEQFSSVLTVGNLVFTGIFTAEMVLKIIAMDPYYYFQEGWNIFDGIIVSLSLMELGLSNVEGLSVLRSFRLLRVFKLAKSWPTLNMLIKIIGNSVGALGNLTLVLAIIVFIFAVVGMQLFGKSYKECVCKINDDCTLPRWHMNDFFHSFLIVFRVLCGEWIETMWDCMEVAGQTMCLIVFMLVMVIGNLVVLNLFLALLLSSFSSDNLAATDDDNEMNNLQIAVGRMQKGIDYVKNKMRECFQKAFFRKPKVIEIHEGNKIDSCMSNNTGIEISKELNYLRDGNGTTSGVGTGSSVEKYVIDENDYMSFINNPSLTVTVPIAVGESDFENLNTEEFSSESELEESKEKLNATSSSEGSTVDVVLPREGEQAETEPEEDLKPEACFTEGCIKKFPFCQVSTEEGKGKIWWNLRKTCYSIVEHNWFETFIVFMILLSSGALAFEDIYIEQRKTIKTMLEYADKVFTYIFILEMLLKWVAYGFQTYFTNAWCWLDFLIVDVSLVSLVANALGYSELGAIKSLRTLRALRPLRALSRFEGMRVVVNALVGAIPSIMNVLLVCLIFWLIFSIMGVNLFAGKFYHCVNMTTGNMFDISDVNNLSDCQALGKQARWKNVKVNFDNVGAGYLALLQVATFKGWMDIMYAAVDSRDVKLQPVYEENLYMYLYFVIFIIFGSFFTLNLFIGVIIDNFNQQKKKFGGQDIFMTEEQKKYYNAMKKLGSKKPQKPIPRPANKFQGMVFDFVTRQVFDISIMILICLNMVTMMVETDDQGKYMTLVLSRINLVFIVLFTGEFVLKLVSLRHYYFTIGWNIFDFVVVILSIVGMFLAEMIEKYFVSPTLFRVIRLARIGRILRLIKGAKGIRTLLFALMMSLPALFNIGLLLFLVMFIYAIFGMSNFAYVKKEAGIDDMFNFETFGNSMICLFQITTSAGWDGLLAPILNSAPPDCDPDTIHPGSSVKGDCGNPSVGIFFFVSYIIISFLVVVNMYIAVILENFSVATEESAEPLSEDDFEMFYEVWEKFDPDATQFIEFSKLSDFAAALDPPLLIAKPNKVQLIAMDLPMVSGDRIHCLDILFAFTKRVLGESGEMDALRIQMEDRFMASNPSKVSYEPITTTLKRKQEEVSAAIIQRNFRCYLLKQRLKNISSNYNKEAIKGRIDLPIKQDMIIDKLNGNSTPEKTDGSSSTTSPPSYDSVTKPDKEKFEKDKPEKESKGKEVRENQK

hNav1.7 [5] = biological target: T1, hNav1.7; test: cell-based; assay type: cell-based; details: PatchXpress; * = at high concentrations compound would wash off slowly or not at all; read-out: PX hNav1.7 Tonic IC50
hNav1.4 [6] = biological target: T3, hNav1.4; test: cell-based; details: for IC50: PatchXpress, * = at high concentrations compound would wash off slowly or not at all, read-out: PX hNav1.4 Tonic IC50; for Nav1.4/Nav1.7: ratio of PX IC50 values
hNav1.5 [7] = biological target: T2, hNav1.5; test: cell-based; details: for IC50: PatchXpress, * = at high concentrations compound would wash off slowly or not at all, read-out: PX hNav1.5 Tonic IC50

SMILES	block of TTX-sensitive Nav current ([1]; 300 nM SEQ ID NO:395, held at −77 mV)	potency relative to JzTx-V (more potent) ([1]; TTX-sensitive current, mouse DRG neurons)	IC50 (hNav1.7 [2]) [nM]	IC50 (hNav1.5 [3]) [nM]	IC50 (hNav1.4 [4]) [nM]	IC50 (hNav1.3) [nM]	IC50 (hNav1.7 [5]) [nM]	IC50 (hNav1.4 [6]) [nM]	IC50 (hNav1.5 [7]) [nM]	Nav1.4/Nav1.7 (hNav1.4 [4])	Nav1.4/Nav1.7 (hNav1.4 [6])	Nav1.5/Nav1.7 (hNav1.5 [7]; ratio of PX IC50 values)
C#CC[C@@H]1NC(=O)[C@@H]2CSSC[C@H](NC(=O)[C@H](Cc3ccc(O)cc3)NC(=O)[C@@H](N)CC#N)C(=O)N[C@@H](CCC(N)=O)C(=O)N[C@@H](CCCCN)C(=O)N[C@@H](Cc3c[nH]c4ccccc34)C(=O)N[C@@H](CCCC)C(=O)N[C@@H](Cc3c[nH]c4ccccc34)C(=O)N[C@@H]([C@@H](C)O)C(=O)N[C@H]3CSSC[C@H](NC(=O)[C@H](CCCNC(=N)N)NC(=O)[C@H](CC(C)C)NC(=O)CNC1=O)C(=O)N[C@@H](CCCCN)C(=O)N[C@@H](CC(C)C)C(=O)N[C@@H](Cc1c[nH]c4ccccc14)C(=O)N[C@H](C(=O)N[C@@H](CCCNC(=N)N)C(=O)N[C@@H](CCCCN)C(=O)N[C@@H](CCC(=O)O)C(=O)N[C@H](C(N)=O)[C@@H](C)CC)CSSC[C@H](NC(=O)[C@H](C)NC(=O)[C@H](CCCNC(=N)N)NC(=O)[C@H](CCCCN)NC(=O)[C@H](CO)NC(=O)[C@H](CC(=O)O)NC3=O)C(=O)N2 [SEQ ID NO: 395, CyA-[Nle6,Pra17,Glu28]JzTx-V(1-29)]	fully blocked TTX-sensitive Nav current; also recorded: complete inhibition	equipotent	–	–	–	–	–	–	–	–	–	–
CC[C@H](C)[C@H](NC(=O)[C@H](Cc1ccc(O)cc1)NC(=O)[C@H](CCCCN)NC(=O)[C@H](CCCNC(=N)N)NC(=O)[C@@H]1CSSC[C@@H]2NC(=O)[C@H](C)NC(=O)[C@H](CCCNC(=N)N)NC(=O)[C@H](CCCCN)NC(=O)[C@H](CO)NC(=O)[C@H](CC(=O)O)NC(=O)[C@@H]3CSSC[C@H](NC(=O)[C@H](CCC(=O)O)NC(=O)[C@H](CC(C)C)NC(=O)CNC(=O)[C@H](CCC(=O)O)NC(=O)[C@H](CSSC[C@H](NC(=O)[C@@H](N)CCC(=O)O)C(=O)N[C@@H](CCC(N)=O)C(=O)N[C@@H](CCCCN)C(=O)N[C@@H](Cc4c[nH]c5ccccc45)C(=O)N[C@@H](CCSC)C(=O)N[C@@H](Cc4c[nH]c5ccccc45)C(=O)N[C@@H]([C@@H](C)O)C(=O)N3)NC2=O)C(=O)N[C@@H](CCCCN)C(=O)N[C@@H](CC(C)C)C(=O)N[C@@H](Cc2c[nH]c3ccccc23)C(=O)N1)C(N)=O [compound 277]	–	–	210	2000	> 5000	> 5000	5.5	939	> 10000	–	–	–
CC[C@H](C)[C@H](NC(=O)[C@@H](NC(=O)[C@H](CCCCN)NC(=O)[C@H](CCCNC(=N)N)NC(=O)[C@@H]1CSSC[C@@H]2NC(=O)[C@H](C)NC(=O)[C@H](CCCNC(=N)N)NC(=O)[C@H](CCCCN)NC(=O)[C@H](CO)NC(=O)[C@H](CC(=O)O)NC(=O)[C@@H]3CSSC[C@H](NC(=O)[C@H](CCC(=O)O)NC(=O)[C@H](CC(C)C)NC(=O)CNC(=O)[C@H](CCC(=O)O)NC(=O)[C@H](CSSC[C@H](NC(=O)[C@@H](N)Cc4ccc(O)cc4)C(=O)N[C@@H](CCC(N)=O)C(=O)N[C@@H](CCCCN)C(=O)N[C@@H](Cc4c[nH]c5ccccc45)C(=O)N[C@@H](CCSC)C(=O)N[C@@H](Cc4c[nH]c5ccccc45)C(=O)N[C@@H]([C@@H](C)O)C(=O)N3)NC2=O)C(=O)N[C@@H](CCCCN)C(=O)N[C@@H](CC(C)C)C(=O)N[C@@H](Cc2c[nH]c3ccccc23)C(=O)N1)C(C)C)C(N)=O [compound 133]	–	–	80	12000	4000	4850	4.1	1310	5500	51	320	–
CC[C@H](C)[C@H](NC(=O)[C@H](Cc1ccc(O)cc1)NC(=O)[C@H](CCCCN)NC(=O)[C@H](CCCNC(=N)N)NC(=O)[C@@H]1CSSC[C@@H]2NC(=O)[C@H](C)NC(=O)[C@H](CCCNC(=N)N)NC(=O)[C@H](CCCCN)NC(=O)[C@H](CO)NC(=O)[C@H](CC(=O)O)NC(=O)[C@@H]3CSSC[C@H](NC(=O)[C@H](CCC(=O)O)NC(=O)[C@H](CC(C)C)NC(=O)CNC(=O)[C@H](CCC(=O)O)NC(=O)[C@H](CSSC[C@H](NC(=O)[C@@H](N)Cc4ccc(O)cc4)C(=O)N[C@@H](CCC(N)=O)C(=O)N[C@@H](CCCCN)C(=O)N[C@@H](Cc4c[nH]c5ccccc45)C(=O)N[C@@H](CCSC)C(=O)N[C@@H](Cc4c[nH]c5ccccc45)C(=O)N[C@@H]([C@@H](C)O)C(=O)N3)NC2=O)C(=O)N[C@@H](CCCCN)C(=O)N[C@@H](CC(C)C)C(=O)N[C@@H](Cc2c[nH]c3ccccc23)C(=O)N1)C(N)=O [compound 137]	–	–	90	8000	> 3500	2010	0.9	1270	11400	41	–	–
CC[C@H](C)[C@H](NC(=O)[C@@H](NC(=O)[C@H](CCCCN)NC(=O)[C@H](CCCNC(=N)N)NC(=O)[C@@H]1CSSC[C@@H]2NC(=O)[C@H](C)NC(=O)[C@H](CCCNC(=N)N)NC(=O)[C@H](CCCCN)NC(=O)[C@H](CO)NC(=O)[C@H](CC(=O)O)NC(=O)[C@@H]3CSSC[C@H](NC(=O)CNC(=O)[C@H](CC(C)C)NC(=O)CNC(=O)[C@H](CCC(=O)O)NC(=O)[C@H](CSSC[C@H](NC(=O)[C@@H](N)Cc4ccc(O)cc4)C(=O)N[C@@H](CCC(N)=O)C(=O)N[C@@H](CCCCN)C(=O)N[C@@H](Cc4c[nH]c5ccccc45)C(=O)N[C@@H](CCSC)C(=O)N[C@@H](Cc4c[nH]c5ccccc45)C(=O)N[C@@H]([C@@H](C)O)C(=O)N3)NC2=O)C(=O)N[C@@H](CCCCN)C(=O)N[C@@H](CC(C)C)C(=O)N[C@@H](Cc2c[nH]c3ccccc23)C(=O)N1)[C@@H](C)CC)C(N)=O [compound 121]	–	–	60	9800	1900	980	7.8	197	14100	29	25	–
CC[C@H](C)[C@H](NC(=O)[C@@H](NC(=O)[C@H](CCCCN)NC(=O)[C@H](CCCNC(=N)N)NC(=O)[C@@H]1CSSC[C@@H]2NC(=O)[C@H](C)NC(=O)[C@H](CCCNC(=N)N)NC(=O)[C@H](CCCCN)NC(=O)[C@H](CO)NC(=O)[C@H](CC(=O)O)NC(=O)[C@@H]3CSSC[C@H](NC(=O)[C@H](CC(=O)O)NC(=O)[C@H](CC(C)C)NC(=O)CNC(=O)[C@H](CCC(=O)O)NC(=O)[C@H](CSSC[C@H](NC(=O)[C@@H](N)Cc4ccc(O)cc4)C(=O)N[C@@H](CCC(N)=O)C(=O)N[C@@H](CCCCN)C(=O)N[C@@H](Cc4c[nH]c5ccccc45)C(=O)N[C@@H](CCSC)C(=O)N[C@@H](Cc4c[nH]c5ccccc45)C(=O)N[C@@H]([C@@H](C)O)C(=O)N3)NC2=O)C(=O)N[C@@H](CCCCN)C(=O)N[C@@H](CC(C)C)C(=O)N[C@@H](Cc2c[nH]c3ccccc23)C(=O)N1)[C@@H](C)CC)C(N)=O [compound 115]	–	–	90	11100	> 5000	> 5000	749	7600	3200	53	10	4
